What was measured:
[1] = tested on: bEND5 and Py4.1 cells; assay: Western blotting of candidate proteins in plasma membranes of latrunculin-induced versus control cells; assay type: cell-based, mouse; conditions: LPM versus CPM, equal amounts of protein
Method: To confirm the findings of the subtractive proteomic analysis, immunoblotting on the relevant fractions was performed with antibodies to candidate proteins. By comparing equal amounts of protein in the two conditions, change in the protein levels of cofilin, alpha-enolase, radixin, moesin, annexin II, and hnRNP K was evaluated (FIG. 9A, 9B).
Methods for inducing fenestrae formation in endothelial cells are described in U.S. Provisional Patent No. 60/627,981, which is hereby incorporated by reference in its entirety. Coverslips and dishes were coated with 1% gelatin (Sigma) solution in PBS for 30 minutes at room temperature. Endothelial cells were seeded overnight at a density equivalent to 1.5×10^6 cells per 100 mm dish. Cultures were induced with Cytochalasin B (Sigma) at 10 μM for 2 hours, with Latrunculin A (Molecular Probes) at 2.5 μM for 3 hours, or with a combination of recombinant mouse 75 ng/ml VEGF (R&D systems) for 6-72 hours and 10 μM Cytochalasin B for 2 hours. Cells were processed for biochemistry or morphology immediately after the end of the induction.
All steps in the procedure were performed on ice or in centrifuges pre-cooled to 4° C. Cells grown on 150 mm dishes were washed twice with PBS containing calcium and magnesium (Invitrogen), and once with coating buffer (20 mM MES, 135 mM NaCl, 0.5 mM CaCl2, 1 mM MgCl2, pH 5.5). […]

[2] = tested on: Py4.1 cells; assay: Subtractive 2D-gel analysis of plasma membranes, latrunculin-induced versus control cells; assay type: cell-based, mouse; conditions: Py4.1 plasma membranes, Progenesis Software
Method: In one embodiment the method of identifying components of fenestrae comprises the step of Subtractive 2D-gel electrophoresis analysis. Sufficient material was pooled to generate one batch of triplicate gels for vehicle-induced and un-induced Py4.1 cells, and three sets of triplicate gels for untreated, vehicle-induced, and induced bEND5 cells (FIG. 6 and FIG. 13). All gels per cell type were analyzed collectively using ProGenesis® software (Prolific, Inc. Newark, Calif.) to obtain fold differences between the staining intensities of spots in the induced and the uninduced samples and p-values for those differences using the Students t-test (FIG. 7). In the first round of analysis, spots that qualified for one or more of the following criteria were selected: a) fold increase in staining intensity greater than 2 in the induced sample, b) p-value less than 0.05 for any fold increase, c) spot being unique in induced sample. A summary of all the spots selected for mass spectrometry, with their accompanying fold differences and p-values is shown in FIG. 15.
Methods for inducing fenestrae formation in endothelial cells are described in U.S. Provisional Patent No. 60/627,981, which is hereby incorporated by reference in its entirety. Coverslips and dishes were coated with 1% gelatin (Sigma) solution in PBS for 30 minutes at room temperature. […]

C/C1=C/C(=O)O[C@@H]2C[C@@H](CC[C@H](C)/C=C\C=C\CC1)O[C@@](O)([C@@H]1CSC(=O)N1)C2 [latrunculin, Latrunculin A]
enrichment of phosphorylated moesin, hnRNP K, cofilin and alpha-enolase in plasma membranes [1]: Enrichment in induced cells is confirmed | spot 659 intensity, latrunculin-induced versus control samples [2]: 1.772 fold | spot 401 intensity, latrunculin-induced versus control samples ([2]; part of a train of spots (phosphorylation states)): 3.8 fold

— patent US20070141637A1, “Marker for fenestrae” (priority 2004, published 2007)
